Measured values taken from PubChem BioAssay (NCI).
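These data come from cells grown in 96-well plates and exposed to compound for 48 hours at five concentrations. The concentration for 50% growth inhibition is given as GI50. Definition used: TGI = concentration required for complete inhibition of growth.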

How the values were obtained:
Test in all cases: NCI anticancer screen, dose series, 48 h
786-0 renal = test system: 786-0 renal
HOP-92 NSCLC = test system: HOP-92 NSCLC
M14 melanoma = test system: M14 melanoma
NCI-H226 lung = test system: NCI-H226 lung
NCI-H522 lung = test system: NCI-H522 lung
NCI/ADR-RES ovarian = test system: NCI/ADR-RES ovarian
OVCAR-3 ovarian = test system: OVCAR-3 ovarian
OVCAR-5 ovarian = test system: OVCAR-5 ovarian
SF-295 CNS = test system: SF-295 CNS
MOLT-4 leukemia = test system: MOLT-4 leukemia

Row | SMILES | TGI (786-0 renal) [µM] | TGI (HOP-92 NSCLC) [µM] | TGI (M14 melanoma) [µM] | TGI (NCI-H226 lung) [µM] | TGI (NCI-H522 lung) [µM] | TGI (NCI/ADR-RES ovarian) [µM] | TGI (OVCAR-3 ovarian) [µM] | TGI (OVCAR-5 ovarian) [µM] | TGI (SF-295 CNS) [µM] | GI50 (786-0 renal) [µM] | GI50 (MOLT-4 leukemia) [µM] | TGI (MOLT-4 leukemia) [µM] | GI50 (NCI-H226 lung) [µM] | GI50 (NCI-H522 lung) [µM] | GI50 (NCI/ADR-RES ovarian) [µM] | GI50 (OVCAR-3 ovarian) [µM] | GI50 (OVCAR-5 ovarian) [µM] | GI50 (SF-295 CNS) [µM] | GI50 (HOP-92 NSCLC) [µM] | GI50 (M14 melanoma) [µM]
1 | COc1ccc(C(Nc2ccccn2)c2cc(C(C)(C)C)cc(C(C)(C)C)c2O)cc1 (stereo not given) | > 100 | > 100 | 54.9 | 47.9 | 17.7 | > 100 | 43.6 | > 100 | 59.3 |  |  |  |  |  |  |  |  |  |  | 
2 | Cc1ccc(/C(=C/C=C(C#N)C#N)Sc2nc3ccccc3s2)cc1 | 6.78 |  |  | 8.01 | 32.9 | 18.7 | 19 | 42.1 | 21 | 2.43 | > 100 | > 100 | 3.5 | 7.36 | 4.24 | 4.49 | 24.1 | 5.77 |  | 
3 | N#CC1=C(c2ccccc2)OC2(N)OC(c3ccccc3)=C(C#N)C12C#N (stereo not given) | > 100 |  | > 100 |  |  |  | > 100 | > 100 | > 100 |  |  | > 100 |  |  |  |  |  |  |  | 
4 | CC[P+]1(c2ccccc2)CCCCC1 | > 100 | > 100 | > 100 | > 100 |  |  | > 100 | > 100 | > 100 |  |  | > 100 |  |  |  |  |  |  |  | 
5 | Cc1ccc(NC(=O)CCC(=O)C2Cc3ccccc3C2=O)cc1C (stereo not given) | > 100 | > 100 | > 100 | > 100 | > 100 |  | > 100 | > 100 | > 100 |  |  | > 100 |  |  |  |  |  |  |  | 
6 | C=C1C(O)C2CC(C)(C)C(=O)C2=C(CC(C)C)C12CC2 (stereo not given) | > 100 | > 100 | > 100 |  | > 100 | > 100 | > 100 | > 100 | > 100 | > 100 | 72 | > 100 |  | 85 | > 100 | > 100 | > 100 | > 100 | > 100 | > 100
7 | CCOP(=O)(OCC)C(NC(c1ccccc1)c1ccccc1)c1ccc(C(C)C)cc1 (stereo not given) | 18.9 | 11 | 4.99 |  | 29.6 | 7.52 | 6.15 |  | 11.7 | 5.6 | 1.71 | 4.25 |  | 6.98 | 2.14 | 1.87 |  | 2.92 | 1.97 | 2.13
8 | CN(C)CCNC(=O)c1cccc2c1nc(-c1ccncc1)c1ccccc12 | 17.8 | 9.77 | 16.8 | 10.5 |  |  | 30.4 | 23.7 | 15.9 |  |  | > 100 |  |  |  |  |  |  |  | 
9 | CSc1cc(C(C)(C)C)ccc1C(O)c1ccc(C(C)(C)C)cc1SC | 22.7 | 28.9 | 26.9 | 27 | 21.9 |  | 24.9 | 27 | 22.6 |  |  | 21.6 |  |  |  |  |  |  |  | 
10 | CC(=O)[CH-]C(=O)c1ccccc1.CC(=O)[CH-]C(=O)c1ccccc1.CC(=O)[CH-]C(=O)c1ccccc1.[Br-].[Zr+4] | > 100 | 61.4 | > 100 |  | > 100 |  | > 100 | > 100 | > 100 | 67.1 | 47.2 | > 100 |  | 93.2 |  | 48.1 | 29.8 | 33.8 | 18.6 | 45
11 | O=C(Nc1ccc(Cl)cc1)N1CCN(c2ccc3nncn3n2)CC1 | > 100 | > 100 | > 100 | > 100 |  | > 100 | > 100 | > 100 | > 100 | > 100 | 23.8 | 69.6 | 68.4 |  | > 100 | 62.4 | > 100 | 53.4 | 31.7 | 56.2
12 | O=C1c2ccccc2C(=O)c2sc(Nc3ccc([N+](=O)[O-])cc3)nc21 | 12.3 | 28.6 | 5.91 | 35.9 | 6.35 |  | 6.82 | 29.8 | 24.7 |  |  | 7.17 |  |  |  |  |  |  |  | 
13 | N#CCC(=O)Nc1ccccc1O | > 100 | > 100 | > 100 | > 100 | > 100 |  | > 100 | > 100 | > 100 |  |  | > 100 |  |  |  |  |  |  |  | 
14 | CCN(CC)CCCC(C)Nc1ccnc(/C=C/c2ccc(Cl)cc2)c1 (stereo not given) | 3.45 | 3.12 | 2.74 | 4.97 | 3.81 | 15.3 | 4.98 | 8.04 | 6.3 |  |  |  | 2.02 |  |  |  |  |  |  | 
15 | COc1cc(NCCC2CCCCN2)c2ncccc2c1OC (stereo not given) | 36.9 |  | 36.3 | 46.8 | 9.05 | 70.5 | 5.01 | 62.7 | 31 | 14.5 |  |  | 23.5 | 2.41 | 22.8 | 2.13 | 19.1 | 10.4 |  | 16.5
16 | N#CC(C#N)=C1CCC2C(=C(C#N)C#N)CCC12 (stereo not given) | > 100 | > 100 | > 100 | > 100 | > 100 |  | > 100 | > 100 | > 100 |  |  | > 100 |  |  |  |  |  |  |  | 
17 | CCOC(=O)c1cc(C(=O)c2cc(OC)c(OC)c(OC)c2)n2ccc(-c3cc[n+](CC(=O)c4cc(OC)c(OC)c(OC)c4)cc3)cc12 | 3.39 |  |  | 6.62 | 5.04 | > 100 | 3.6 | 5.24 |  | 1.75 |  |  | 2.37 | 2.13 | > 100 | 1.83 | 1.84 |  |  | 
18 | COc1ccc(NC(=O)c2cccc(C3CCc4c(cc(OC)c(OC)c4OC)O3)c2)cc1 (stereo not given) | > 100 | 3.49 | > 100 |  | 7.37 | > 100 | > 100 | > 100 |  | 4.18 |  |  |  | 2.29 | 2.81 | 3.54 | 6.46 |  | 0.29 | 2.6
19 | FC(F)(F)c1nc(Br)[nH]c1C(F)(F)F | > 100 | 71.7 | > 100 | > 100 |  |  | > 100 | > 100 | > 100 |  |  | > 100 |  |  |  |  |  |  |  | 
